Source: patent US7973166B2, “N-(2-aminophenyl)-4-[N-(pyridine-3-yl)-methoxycarbonyl-aminomethyl]-benzamide (MS-275) polymorph B” (Bayer Schering Pharma AG, priority 2008, dated 2011)

What was measured:
[1] = test system: DU-145 Human Prostate Carcinoma; test: DU-145 human prostate carcinoma model in nude mice; format: in vivo; conditions: orally 10, 20 or 30 mg/kg in 30% HPβCD, tumor growth determined 27 to 56 days after tumor transplantation, versus vehicle control
Description: The active compound was applied in 30% HPβCD. As control, a vehicle of DMSO/ethanol 1.1 in 0.085% Myrj/NaCl/30% HPβCD was used. The tumor growth was determined after 27 to 56 days after tumor transplantation.

[2] = Thermodynamic stability of the solid state forms; format: physicochemical; conditions: at least in the relevant temperature range below 600 / below 60° C.

| Compound | tumor growth [1] | thermodynamic stability of the polymorph [2] |
| --- | --- | --- |
| Nc1ccccc1NC(=O)c1ccc(CNC(=O)OCc2cccnc2)cc1 [polymorph B, N-(2-aminophenyl)-4-[N-(pyridine-3-yl)methoxy-carbonylamino-methyl]benzamide] | clear inhibition | thermodynamically stable polymorph |
| Nc1ccccc1NC(=O)c1ccc(CNC(=O)OCc2cccnc2)cc1 [polymorph A, N-(2-aminophenyl)-4-[N-(pyridine-3-yl)methoxycarbonylamino-methyl]benzamide, reference compound] | – | not the thermodynamically stable polymorph |
